One assay relates to Kuramochi cells RB-KO. Kind of assay: IncuCyte Kuramochi cell proliferation assay, RB-KO. The assay is classed as cell-based. The conditions noted are these: 72 hours, cell count, batch mean. The protocol: IncuCyte® assay was used to measure the effect of disclosed compounds on cell proliferation. Fluorescent microscopy images of cells were taken immediately after compound treatment and 72 hours later. Image analysis software was used to obtain cell counts as a function of compound concentration. Kuramochi cells labeled with mApple-H2B were seeded on 384-well assay-ready plates. Plates were placed in an IncuCyte® (Sartorius) and scanned at 0 and 72 hours. IncuCyte® software was used to count the number of fluorescent nuclei in each well. The fold change in cell count from 0 to 72 hours in wells treated with increasing compounds concentrations (10 pts, 1/2 log dilution, 20 µM top concentration) was normalized to DMSO control wells. The normalized cell counts were fit with dose response curves and a GI50 was calculated.

The next assay deals with CDK2/Cyclin E1 (Homo sapiens, UniProt P24941). Kind of assay: ADP-Glo Luminescent Kinase Assay (CDK2/E1-37C). Conditions: 0.18 nM CDK2/Cyclin E1, 100 μM ATP, Histone H1, 37° C.; read-out: ADPGLO (CDK2/E1-37C): IC50. It is filed as biochemical. Summed up:
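Activated CDK2/Cyclin E1 (0.18 nM final) preincubated with compound 60 min at 37 °C, then reacted with 100 μM ATP and Histone H1 ([…]) for 90 min at 37 °C in HEPES pH 7.5 buffer. ADP-Glo luminescence normalized to % activity; IC50 from four-parameter fit.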
A general note: ADP-Glo turns the ADP formed in a reaction into a luminescent signal.

In a further assay the test system is Kuramochi cells RB-WT. Kind of assay: IncuCyte Kuramochi cell proliferation assay, RB-WT. It is filed as cell-based. The conditions noted are these: 72 hours, cell count. The procedure, abridged: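 mApple-H2B-labelled Kuramochi cells were treated with a 10-point, half-log series (top 20 µM) and imaged at 0 and 72 h. Fluorescent nuclei were counted, and the 0–72 h fold change was normalized to DMSO wells. GI50 came from dose-response fits.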

A value given as a limit tells only on which side of the number the result lay.

Consider `CC1(C)C[C@@H]1C(=O)N1CC2(CN(C(=O)c3cnn(Cc4ccc(F)cc4)c3)CC2COc2cccc(OC3CCC(F)(F)CC3)c2C(=O)O)C1` (stereo partly drawn) [Compound I-130, 2-((4,4-difluorocyclohexyl)oxy)-6-((2-((S)-2,2-dimethylcyclopropane-1-carbonyl)-6-(1-(4-fluorobenzyl)-1H-pyrazole-4-carbonyl)-2,6-diazaspiro[3.4]octan-8-yl)methoxy)benzoic acid], for which the values for the IC50 with Kuramochi cells RB-KO, at CDK2/Cyclin E1 and in the assay with Kuramochi cells RB-WT were above 10 µM, at most 0.5 µM and above 10 µM, respectively.
For the compound `CC(C)(C(=O)N1CC2(CN(C(=O)c3cnn(Cc4ccc(F)cc4)c3)C[C@H]2COCc2cccc(N3CCC(C(F)(F)F)CC3)c2C(=O)O)C1)C(F)(F)F` [I′-19, (S)-2-(((6-(1-(4-fluorobenzyl)-1H-pyrazole-4-carbonyl)-2-(3,3,3-trifluoro-2,2-dimethylpropanoyl)-2,6-diazaspiro[3.4]octan-8-yl)methoxy)methyl)-6-(4-(trifluoromethyl)piperidin-1-yl)benzoic acid], the IC50 in the assay on Kuramochi cells RB-KO is above 10 µM; on CDK2/Cyclin E1, at most 0.5 µM; in the assay on Kuramochi cells RB-WT it was 0.5 to 5 µM.
The corresponding values for `CC(C)(C(=O)N1CC2(CN(C(=O)c3cnn(Cc4ccc(F)cc4)c3)C[C@H]2COCc2c(C(F)(F)F)ccc(C3CCC(F)(F)CC3)c2C(=O)O)C1)C(F)(F)F` [I′-20] are above 10 µM, at most 0.5 µM and 5 to 10 µM.
Consider `CC(C)(C(=O)N1CC2(CN(C(=O)c3cnn(Cc4ccc(F)cc4)c3)C[C@H]2COCc2ccc(F)c(C3CCC(F)(F)CC3)c2C(=O)O)C1)C(F)(F)F` [I′-21], for which the figures for the IC50 in the assay with Kuramochi cells RB-KO, at CDK2/Cyclin E1 and in the assay with Kuramochi cells RB-WT were above 10 µM, at most 0.5 µM and above 10 µM, respectively.
In the case of `CC(C)(C(=O)N1CC2(CN(C(=O)c3cnn(Cc4ccc(F)cc4)c3)C[C@H]2COCc2cccc(C3CCC(F)(F)CC3)c2C(=O)NCCN2CCOCC2)C1)C(F)(F)F` [I′-22], the IC50 was above 10 µM in the assay on Kuramochi cells RB-KO, at most 0.5 µM on CDK2/Cyclin E1 and above 10 µM in the assay with Kuramochi cells RB-WT.
Consider `CC(C)(C(=O)N1CC2(CN(C(=O)c3cnn(Cc4ccc(F)cc4)c3)C[C@H]2COCc2cccc(C3CCC(C(F)(F)F)CC3)c2CC(=O)O)C1)C(F)(F)F` (stereo partly drawn) [I′-23, (S)-2-(2-(((6-(1-(4-fluorobenzyl)-1H-pyrazole-4-carbonyl)-2-(3,3,3-trifluoro-2,2-dimethylpropanoyl)-2,6-diazaspiro[3.4]octan-8-yl)methoxy)methyl)-6-(4-(trifluoromethyl)cyclohexyl)phenyl)acetic acid], for which the IC50 with Kuramochi cells RB-KO was above 10 µM; on CDK2/Cyclin E1, at most 0.5 µM; with Kuramochi cells RB-WT it was at most 0.5 µM.
`CC(C)(C(=O)N1CC2(CN(C(=O)c3cnn(Cc4ccc(F)cc4)c3)C[C@H]2COCc2cccc(C3CCC(F)(F)CC3)c2-c2nn[nH]n2)C1)C(F)(F)F` [I′-24]: the IC50 in the assay on Kuramochi cells RB-KO was above 10 µM; at CDK2/Cyclin E1 it was at most 0.5 µM; with Kuramochi cells RB-WT, 0.5 to 5 µM.
The corresponding values for `CC1(C)C[C@@H]1C(=O)N1CC2(CN(C(=O)c3cnn(Cc4ccc(F)cc4)c3)C[C@H]2COCc2cccc(C3CCC(F)(F)CC3)c2C(=O)NCCN2CCOCC2)C1` [I′-25, 2-(4,4-difluorocyclohexyl)-6-((((S)-2-((S)-2,2-dimethylcyclopropane-1-carbonyl)-6-(1-(4-fluorobenzyl)-1H-pyrazole-4-carbonyl)-2,6-diazaspiro[3.4]octan-8-yl)methoxy)methyl)-N-(2-morpholinoethyl)benzamide] are above 10 µM, at most 0.5 µM and above 10 µM.
The corresponding values for `CC(C)(C(=O)N1CC2(CN(C(=O)c3cnn(Cc4ccc(F)cc4)c3)C[C@H]2COCc2cccc(-c3csc(C(F)(F)F)c3)c2C(=O)O)C1)C(F)(F)F` [I′-26, (S)-2-(((6-(1-(4-fluorobenzyl)-1H-pyrazole-4-carbonyl)-2-(3,3,3-trifluoro-2,2-dimethylpropanoyl)-2,6-diazaspiro[3.4]octan-8-yl)methoxy)methyl)-6-(5-(trifluoromethyl)thiophen-3-yl)benzoic acid] are above 10 µM, at most 0.5 µM and at most 0.5 µM.
The corresponding values for `CC(C)(C(=O)N1CC2(CN(C(=O)c3cnn(Cc4ccc(F)cc4)c3)C[C@H]2COCc2cccc(-c3cccc(C(F)(F)F)c3)c2C(=O)O)C1)C(F)(F)F` [I′-27, (S)-3-(((6-(1-(4-fluorobenzyl)-1H-pyrazole-4-carbonyl)-2-(3,3,3-trifluoro-2,2-dimethylpropanoyl)-2,6-diazaspiro[3.4]octan-8-yl)methoxy)methyl)-3′-(trifluoromethyl)-[1,1′-biphenyl]-2-carboxylic acid] are above 10 µM, at most 0.5 µM and 5 to 10 µM.
Turning to `CC(C)(C(=O)N1CC2(CN(C(=O)c3cnn(Cc4ccc(F)cc4)c3)C[C@H]2COCc2cccc(-c3cccc(F)c3)c2C(=O)O)C1)C(F)(F)F` [I′-28], the IC50 in the assay with Kuramochi cells RB-KO is above 10 µM; on CDK2/Cyclin E1, at most 0.5 µM; in the assay on Kuramochi cells RB-WT, 5 to 10 µM.
The corresponding values for `O=C(O)c1c(CCC2CN(C(=O)c3cnn(Cc4ccc(F)cc4)c3)CC23CN(C(=O)C2(C(F)(F)F)CC2)C3)cccc1C1CCC(F)(F)CC1` (stereo not drawn) [I′-29] are above 10 µM, at most 0.5 µM and above 10 µM.
The corresponding values for `CC(C)(C(=O)N1CC2(CN(C(=O)c3cnn(Cc4ccc(F)cc4)c3)C[C@H]2COCc2cccc(C3CCC(F)(F)CC3)c2C(=O)OCCN2CCOCC2)C1)C(F)(F)F` [I′-31] are 5 to 10 µM, at most 0.5 µM and 0.5 to 5 µM.
The corresponding values for `O=C(O)c1c(OCCC2CN(C(=O)c3cnn(Cc4ccc(F)cc4)c3)CC23CN(C(=O)C2(C(F)(F)F)CC2)C3)cccc1C1CCC(F)(F)CC1` (stereo not drawn) [I′-32, 2-(4,4-difluorocyclohexyl)-6-(2-(6-(1-(4-fluorobenzyl)-1H-pyrazole-4-carbonyl)-2-(1-(trifluoromethyl)cyclopropane-1-carbonyl)-2,6-diazaspiro[3.4]octan-8-yl)ethoxy)benzoic acid] are 5 to 10 µM, at most 0.5 µM and at most 0.5 µM.
As to `NC(=O)c1c(COC[C@@H]2CN(c3cc(F)c(F)c4ncsc34)CC23CN(C(=O)C2(C(F)(F)F)CC2)C3)cccc1C1CCC(F)(F)CC1` [I′-33, 2-(((6-(4,5-difluorobenzo[d]thiazol-7-yl)-2-(1-(trifluoromethyl)cyclopropane-1-carbonyl)-2,6-diazaspiro[3.4]octan-8-yl)methoxy)methyl)-6-(4,4-difluorocyclohexyl)benzamide], the IC50 in the assay with Kuramochi cells RB-KO was above 10 µM; at CDK2/Cyclin E1, at most 0.5 µM; in the assay on Kuramochi cells RB-WT, above 10 µM.
As for `O=C(O)c1c(COC[C@@H]2CN(c3cc(F)c(F)c4ncsc34)CC23CN(C(=O)C2(C(F)(F)F)CC2)C3)cccc1C1CCC(C(F)(F)F)CC1` (stereo partly drawn) [I′-34, (S)-2-(((6-(4,5-difluorobenzo[d]thiazol-7-yl)-2-(1-(trifluoromethyl)cyclopropane-1-carbonyl)-2,6-diazaspiro[3.4]octan-8-yl)methoxy)methyl)-6-(4-(trifluoromethyl)cyclohexyl)benzoicacid], the values for the IC50 with Kuramochi cells RB-KO, at CDK2/Cyclin E1 and with Kuramochi cells RB-WT were above 10 µM, at most 0.5 µM and at most 0.5 µM, respectively.
For the compound `CC(C)(C(=O)N1CC2(CN(C(=O)c3cnn(Cc4ccc(F)cc4)c3)C[C@H]2COCc2cccc(C3CCC(F)(F)CC3)c2C#N)C1)C(F)(F)F` [I′-35], the IC50 was above 10 µM in the assay on Kuramochi cells RB-KO, at most 0.5 µM at CDK2/Cyclin E1 and 0.5 to 5 µM with Kuramochi cells RB-WT.
The corresponding values for `CC1(C)C[C@@H]1C(=O)N1CC2(CN(C(=O)c3cnn(Cc4ccc(F)cc4)c3)C[C@H]2COCc2cccc(C3CCC(F)(F)CC3)c2C(=O)OCCN2CCOCC2)C1` [I′-36, 2-morpholinoethyl 2-(4,4-difluorocyclohexyl)-6-((((S)-2-((S)-2,2-dimethylcyclopropane-1-carbonyl)-6-(1-(4-fluorobenzyl)-1H-pyrazole-4-carbonyl)-2,6-diazaspiro[3.4]octan-8-yl)methoxy)methyl)benzoate] are 0.5 to 5 µM, at most 0.5 µM and at most 0.5 µM.
Regarding `CC(C)(C(=O)N1CC2(CN(C(=O)c3cnn(Cc4ccc(F)cc4)c3)C[C@H]2COCc2cccc(C3=CCC(F)(F)CC3)c2C(=O)O)C1)C(F)(F)F` [I′-37], the IC50 in the assay with Kuramochi cells RB-KO is above 10 µM; at CDK2/Cyclin E1, at most 0.5 µM; in the assay with Kuramochi cells RB-WT, at most 0.5 µM.
As to `CC(C)(C(=O)N1CC2(CN(C(=O)c3cnn(Cc4ccc(F)cc4)c3)C[C@H]2COCc2cccc(-c3ccc(F)cc3)c2C(=O)O)C1)C(F)(F)F` [I′-38], the IC50 with Kuramochi cells RB-KO was above 10 µM; on CDK2/Cyclin E1, at most 0.5 µM; in the assay with Kuramochi cells RB-WT it was 5 to 10 µM.
The corresponding values for `CC(C)(C(=O)N1CC2(CN(C(=O)c3cnn(Cc4ccc(F)cc4)c3)C[C@H]2COCc2cccc(-c3ccccc3)c2)C1)C(F)(F)F` [I′-39] are above 10 µM, 0.5 to 5 µM and above 10 µM.
Consider `CC(C)(C(=O)N1CC2(CN(C(=O)c3cnn(Cc4ccc(F)cc4)c3)C[C@H]2COCc2cccc(-c3ccccc3C(=O)O)c2)C1)C(F)(F)F` [I′-40], for which the IC50 with Kuramochi cells RB-KO is 5 to 10 µM; on CDK2/Cyclin E1, 0.5 to 5 µM; in the assay with Kuramochi cells RB-WT, 0.5 to 5 µM.

For the origin of these results see patent US20260034123A1 (Cedilla Therapeutics, Inc., priority 2022, published 2026).
